Values of other authors in US4127523A, “Novel undecapeptides, intermediates therefor, and compositions and methods employing said undecapeptides” (priority 1977, dated 1978).

Tests used:
[1] = injected directly into the brain of the rat; Belluzzi et al.
[2] = tested on: partially purified brain opiate receptor sites; conditions: literature, Bradbury et al.
[3] = literature

H-Tyr-Gly-Gly-Phe-Met-OH [methionine enkephalin]
analgesic activity [1]: only weak analgesic agent of short duration | binding to partially purified brain opiate receptor sites [2]: binds stereo-specifically | activity in bioassays for opiate activity [3]: very active
